From patent US6893830B1, “Method of screening oxysterol activation of LXRα” (The Board of Regents of the University of Texas System, priority 1996, dated 2005)

Target: T1, LXR-TR chimera (LXRα N-terminus and DNA binding domain fused to ligand binding domain of TRβ) (Homo sapiens, UniProt P10828+Q13133)
T1 sequence (Q13133+P10828 with tags, fused parts or gaps): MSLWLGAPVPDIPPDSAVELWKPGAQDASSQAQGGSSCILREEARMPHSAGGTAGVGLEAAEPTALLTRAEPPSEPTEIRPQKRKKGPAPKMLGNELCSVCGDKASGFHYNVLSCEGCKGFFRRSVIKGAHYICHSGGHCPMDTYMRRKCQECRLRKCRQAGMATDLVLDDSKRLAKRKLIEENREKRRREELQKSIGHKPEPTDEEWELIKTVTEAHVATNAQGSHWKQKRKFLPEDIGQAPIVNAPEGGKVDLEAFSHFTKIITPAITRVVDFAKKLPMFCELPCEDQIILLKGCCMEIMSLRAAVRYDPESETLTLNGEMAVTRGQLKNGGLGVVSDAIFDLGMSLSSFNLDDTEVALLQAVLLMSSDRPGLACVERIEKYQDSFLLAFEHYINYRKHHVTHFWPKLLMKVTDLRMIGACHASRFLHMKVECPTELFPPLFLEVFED
Conditions: CV-1 cells, TK-LXREx3-LUC

Compound: CC(C)CC[C@@H](O)[C@@H](C)[C@H]1CC[C@H]2[C@@H]3CC=C4C[C@@H](O)CC[C@]4(C)[C@H]3CC[C@]12C [22(R)-hydroxycholesterol]
- responsiveness of LXR-TR chimera: loses responsiveness
